Measured values reported in patent publication US20230321462A1, “Method for Improving Olfactory Sensitivity” (Kao Corporation, priority 2019, published 2023).

Key:
[1] = tested on: olfactory sensitivity to 3M3SH; experiment: Sensory test: odor sensory intensity to 3M3SH with 3M3SH applied to armpit portions of clothes; format: in vivo, human; settings: fifteen minutes after application of 3M3SH onto the armpit portions, two subjects, FIG. 3
Experimental: 3M3SH was used as an underarm odor-causing substance. A sensory evaluation sample was prepared by adding one cotton ball (Hakujuji Co., Ltd., No. 10) into a 13.5-mL vial bottle (Maruemu No. 5), and then adding 10 µL of a 3M3SH solution with each diluted concentration thereto. For the 3M3SH solution, mineral oil (Sigma-Aldrich) was used as a solvent, and the concentrations of the solution were set to be 0 µM, 1 µM, 3 µM, 10 µM, 30 µM, 100 µM, and 300 µM.
The sensory test was carried out with two subjects. The subjects wore a commercially available white cloth (material: 65% polyester and 35% cotton). The subjects first smelled the above-described samples in the order from a low concentration sample to a high concentration sample, and odor sensory intensity which the subjects felt was then evaluated. The evaluation was carried out in 9 stages from “0: Not felt” to “4: Unbearably strongly felt,” at intervals of 0.5. Thereafter, the 3M3SH ethanol solution (3 µg/mL) was added in an amount of 10 µL each onto both of the armpit portions of each subject’ clothes (white clothes). Fifteen minutes after addition of this solution, the above-described sensory evaluation was carried out again. […]

[2] = biological target: T1, OR10G4 (Homo sapiens, UniProt Q8NGN3); experiment: Luciferase reporter gene assay, response of OR10G4 to odor substances; format: cell-based; settings: OR10G4-expressing HEK293 cells, luciferase fold increase, FIG. 1
T1 construct: Flag-Rho tag (N); expressed in transfected cells; host or cells: HEK293
T1 sequence (Q8NGN3 1-311): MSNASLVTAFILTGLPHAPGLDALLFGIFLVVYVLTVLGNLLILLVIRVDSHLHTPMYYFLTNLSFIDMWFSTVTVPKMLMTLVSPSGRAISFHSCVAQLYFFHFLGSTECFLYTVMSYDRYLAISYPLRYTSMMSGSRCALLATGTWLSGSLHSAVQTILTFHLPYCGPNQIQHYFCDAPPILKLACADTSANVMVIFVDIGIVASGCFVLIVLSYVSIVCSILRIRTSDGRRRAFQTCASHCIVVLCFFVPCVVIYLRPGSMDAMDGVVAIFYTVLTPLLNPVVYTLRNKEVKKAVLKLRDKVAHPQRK
Source text: Genes encoding the human olfactory receptors OR10G4, OR4S2, OR5P3, OR2W1, and OR1A1 (which are as set forth in SEQ ID NOs: 1, 2, 3, 4, and 5, respectively) were cloned. Each gene was cloned by PCR using human genomic DNA female (G1521: Promega) as a template, based on the sequence information registered in GenBank. Each gene amplified by PCR was incorporated into a pENTR vector (Invitrogen) in accordance with the manual, and by utilizing the NotI/AscI site present on the pENTR vector, it was recombined to the NotI/AscI site produced downstream of a Flag-Rho tag sequence on a pME18S vector. […]
(§1) An olfactory receptor expressed in HEK293 cells conjugated with Gαs existing in the cells to activate adenylate cyclase, so as to increase the amount of cAMP in the cells. For the receptor response measurement in the present study, a luciferase reporter gene assay was applied, and an increase in the intracellular amount of cAMP was monitored as a luminescence value derived from a firefly luciferase gene (fluc2P-CRE-hygro). […]
The medium was removed from the culture produced in the above 3), and an odor substance solution was then added thereto. […] The activity of luciferase was measured using Dual-Glo™ luciferase assay system (Promega) in accordance with the operating manual of the product. […]

[3] = biological target: T2, OR4S2 (Homo sapiens, UniProt Q8NH73); experiment: Luciferase reporter gene assay, response of OR4S2 to odor substances; format: cell-based; settings: OR4S2-expressing HEK293 cells, luciferase fold increase, FIG. 4, 5, 9
T2 construct: Flag-Rho tag (N); expressed in transfected cells; host or cells: HEK293
T2 sequence (Q8NH73 1-311): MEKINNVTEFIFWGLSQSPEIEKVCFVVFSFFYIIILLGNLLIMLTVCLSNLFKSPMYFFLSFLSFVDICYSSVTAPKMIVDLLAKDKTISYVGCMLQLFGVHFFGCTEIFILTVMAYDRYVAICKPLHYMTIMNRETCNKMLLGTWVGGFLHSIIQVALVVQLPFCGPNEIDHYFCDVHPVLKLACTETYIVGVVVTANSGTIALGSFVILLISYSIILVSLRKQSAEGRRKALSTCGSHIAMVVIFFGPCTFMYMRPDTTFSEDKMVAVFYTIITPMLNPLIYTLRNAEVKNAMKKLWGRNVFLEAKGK
Source text: Genes encoding the human olfactory receptors OR10G4, OR4S2, OR5P3, OR2W1, and OR1A1 (which are as set forth in SEQ ID NOs: 1, 2, 3, 4, and 5, respectively) were cloned. Each gene was cloned by PCR using human genomic DNA female (G1521: Promega) as a template, based on the sequence information registered in GenBank. Each gene amplified by PCR was incorporated into a pENTR vector (Invitrogen) in accordance with the manual, and by utilizing the NotI/AscI site present on the pENTR vector, it was recombined to the NotI/AscI site produced downstream of a Flag-Rho tag sequence on a pME18S vector.
HEK293 cells in which any one of the above-described human olfactory receptors was allowed to express, were produced. A reaction solution having the composition shown in Table 2 was prepared, and was then left to stand in a clean bench for 15 minutes. The resultant was added into each well of a 96-well plate (BD). […]
as §1
The medium was removed from the culture produced in the above 3), and an odor substance solution was then added thereto. […] The activity of luciferase was measured using Dual-Glo™ luciferase assay system (Promega) in accordance with the operating manual of the product. The value fLuc/hRluc was calculated by dividing the value of luminescence derived from firefly luciferase by the value of luminescence derived from Renilla luciferase. A fold increase was calculated by dividing the value fLuc/hRluc induced by cells stimulated with an odor substance, by the value fLuc/hRluc induced by cells not stimulated with an odor substance, and the obtained value was used as an indicator of response intensity. […]

[4] = tested on: olfactory sensitivity; experiment: Sensory test: detection threshold concentration of odor substances before and after oral care; format: in vivo, human; settings: for olfactory sensitivity (detection threshold concentration): 1 hour after oral care vs before oral care
Experimental: Olfactory sensitivity before and after oral care was evaluated according to a sensory test. The experimental scheme is shown in FIG. 6A, and is also described in detail below. The sensory test was carried out with 14 subjects. On the test day, the subjects were prohibited to eat and drink anything after getting up, and were also prohibited to do oral care including brushing of teeth. The test was started between 8:00 am to 9:30 am. First, exhaled breath was collected from the subjects. Subsequently, the detection threshold concentration of each odor substance was measured according to the sensory test. Thereafter, the subjects ate designated breakfast, and then performed oral care (the brushing of teeth using commercially available toothbrush and dentifrice for 5 minutes, and then, the washing of the mouth using commercially available mouth wash for 30 seconds). At individual time points of 10 minutes and 1 hour after the oral care, exhaled breath was collected from the subjects and the detection threshold concentration of each odor substance was measured.
1 mL of an odor substance solution placed in a vial bottle (Maruemu, No. 2) was used as an odor sample. As such odor substance solutions, a 20-step 2-fold dilution series was prepared regarding each of muscone, indole, and furfuryl mercaptan (highest concentrations: 1000 ppm, 1 mM, and 10 ppb, respectively). Mineral oil (Sigma-Aldrich) was used as a solvent in all cases. As a blank, a vial containing 1 mL of mineral oil was used.
A single test was carried out on two types of odor substance among muscone, indole, and furfuryl mercaptan. […] The test participants smelled the odors contained in the vials and tried to choose the vial containing an odor solution. The test was started with an odor sample having the third low concentration. When the subject’s selection was incorrect or the subject could not choose the vial even once, the same trial was carried out using an odor sample having one step higher concentration. When the subject’ selection was correct two times in a row, the same trial was carried out using an odor sample having one step lower concentration. When the subject’ selection was correct two times in a row using an odor sample with a new concentration, the subject was tested using an odor sample having further one step lower concentration. When the subject could not choose the correct vial even once, the subject was tested using an odor sample having one step higher concentration. Switching from a high concentration to a low concentration, and from a low concentration to a high concentration, was recorded 7 times in total, and the mean value of the concentrations measured 4 times in the second half was defined as a detection threshold concentration. The detection threshold concentrations of each odor substance before and after oral care were compared with each other according to the Wilcoxon signed-rank test, and the p value was calculated. The statistical analysis was carried out using R Software (Ver.3.6.0).

[5] = biological target: T3, OR5AN1 (Homo sapiens, UniProt Q8NGI8); settings: Patent Literature 1; cited from earlier work
T3 sequence (Q8NGI8 1-311): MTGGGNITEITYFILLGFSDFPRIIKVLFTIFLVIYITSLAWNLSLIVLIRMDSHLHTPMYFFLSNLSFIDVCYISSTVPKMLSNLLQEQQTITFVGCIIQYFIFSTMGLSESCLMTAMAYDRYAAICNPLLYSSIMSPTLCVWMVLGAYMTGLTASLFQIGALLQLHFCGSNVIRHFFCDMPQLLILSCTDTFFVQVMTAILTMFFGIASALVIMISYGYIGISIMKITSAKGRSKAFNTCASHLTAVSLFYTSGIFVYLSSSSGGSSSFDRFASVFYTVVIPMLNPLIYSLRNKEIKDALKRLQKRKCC

SMILES | response of OR10G4 to odor substances [2] | response of OR4S2 to odor substances [3] | olfactory sensitivity (detection threshold concentration) ([4]; FIG. 7A) | also measured
CCCC(C)(S)CCO (stereo not drawn) [3M3SH, 3-Methyl-3-sulfanylhexan-1-ol] |  |  |  | odor intensity of 3M3SH felt from the sample [1]: reduced
CCOc1cc(C=O)ccc1O [ethyl vanillin, Ethyl vanillin] | activate OR10G4 |  |  | 
SCc1ccco1 [furfuryl mercaptan, Furfuryl mercaptan] |  | is activated by | statistically significantly improved | 
COc1ccccc1O [guaiacol, Guaiacol] | activate OR10G4 |  |  | 
c1ccc2[nH]ccc2c1 [indole, Indole] |  | activate OR4S2 | statistically significantly improved | detection threshold concentration relative to before oral care ([4]; 10 minutes after the oral care, FIG. 7B): 1/16; detection threshold concentration relative to before oral care ([4]; 1 hour after the oral care, on average, FIG. 7A): ⅛
C[C@@H]1CCCCCCCCCCCCC(=O)C1 [muscone, Muscone] |  | is not activated by | no statistically significant difference | recognition by OR5AN1 [5]: recognized, mainly mediated by OR5AN1
